Test system: T1, extracellular lipase from Mortierella echinosphaera CBS 575.75 (M. echinosphaera lipase)
T1 construct: native enzyme purified from culture filtrate (ammonium sulfate, Sephadex G-75, Macro-Prep High Q, Sephacryl S-200 HR); about 30 kDa by SDS-PAGE
Assay: p-nitrophenol release, Lineweaver-Burk
Format: biochemical
Settings: pH 6.8, 25 °C, 30 min, 0.05-3.2 mM substrate; free enzyme

| Compound | Km [µM] |
| --- | --- |
| CCCCCCCCCCCCCCCC(=O)Oc1ccc([N+](=O)[O-])cc1 [p-nitrophenyl palmitate] | 336 |
| CCCCCCCCCC(=O)Oc1ccc([N+](=O)[O-])cc1 [pNP-decanoate] | 333 |

From publication PMC5979600, “An Organic Solvent-Tolerant Lipase with Both Hydrolytic and Synthetic Activities from the Oleaginous Fungus Mortierella echinosphaera” (International Journal of Molecular Sciences, 2018)
